Holding throughout (experiment): NCI tumour cell line growth inhibition, 48 h
Experiment [1] concerns EKVX.
Experiment [2] relates to TK-10.
In experiment [3] the test system is SF-295.
Experiment [4] relates to NCI-H522.
Experiment [5] has as its system NCI/ADR-RES.
In experiment [6] the test system is OVCAR-4.
Experiment [7] deals with RPMI-8226.
In experiment [8] the test system is M14.
In experiment [9] the test system is COLO 205.
The test system of experiment [10] is PC-3.
Experiment [11] relates to K562.
The subject of experiment [12] is A498.
For experiment [13], the system named is MDA-N.
For experiment [14], the system named is IGROV-1.
In experiment [15] the test system is SK-MEL-5.
For experiment [16], the system named is SN12C.
The test system of experiment [17] is Malme-3M.
Experiment [18] relates to LOX IMVI.
Experiment [19] has as its system SK-MEL-2.
The subject of experiment [20] is DU-145.

The text below walks through data of ChEMBL document CHEMBL1201862, “PubChem BioAssay data set” (2004).

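Results reflect a 48-hour exposure of cells in 96-well plates to compound at five concentrations. At the GI50, growth is halved.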 Activity calls are given as the source filed them. Cut-off read from the data, not from the text of the source: active = GI50 up to about 1.1 µM and inactive = higher.

In the case of `COc1ccc(OC)c(N2C(=O)/C(=C\c3ccccc3)SC2c2cc(OC)c(OC)c(OC)c2)c1` (stereo not given), the GI50 in experiment [1] is > 83.6 µM (inactive); in experiment [2] it was > 100 µM (inactive); in experiment [3], 47.5 µM (inactive); in experiment [4], 30.9 µM (inactive); in experiment [5], > 71.3 µM (inactive); in [6], > 91.8 µM (inactive). The GI50 in experiment [7] was 71.4 µM (inactive); in experiment [8] it was > 100 µM (inactive); in [9], > 91.6 µM (inactive); in experiment [10], > 89.5 µM (inactive); in experiment [11], 50.9 µM (inactive); in experiment [12], 51.5 µM (inactive). In addition, the GI50 in experiment [13] was 22 µM (inactive); in [14] it was 29.8 µM (inactive); in [15] it was > 91.6 µM (inactive); in experiment [16], > 100 µM (inactive); in experiment [17], > 100 µM (inactive); in experiment [18], > 100 µM (inactive). Further, the GI50 in [19] and in experiment [20] was > 100 µM (inactive) each time.
Consider `OC1COC(n2c3ccc(Br)cc3c3ccc4c5ccccc5[nH]c4c32)C(O)C1O` (stereo not given), for which the GI50 is 4.59 µM (inactive) in experiment [1]; 4.28 µM (inactive) in experiment [2]; 0.538 µM (active) in experiment [3]; 2.82 µM (inactive) in [4]; 4.07 µM (inactive) in experiment [5]; 13.5 µM (inactive) in experiment [6]. The GI50 is 3.52 µM (inactive) in experiment [7]; 3.12 µM (inactive) in [8]; 1.89 µM (inactive) in experiment [9]; 2.21 µM (inactive) in experiment [10]; 2.29 µM (inactive) in [11]; 4.3 µM (inactive) in experiment [12]. Moreover, the GI50 in experiment [13] is 4.4 µM (inactive); in experiment [14], 1.21 µM (inactive); in [15], 2.26 µM (inactive); in experiment [16], 4.84 µM (inactive); in experiment [17], 3.88 µM (inactive); in [18] it was 2.31 µM (inactive). Also, the GI50 in experiment [19] is 0.658 µM (active); in experiment [20], 3.66 µM (inactive).
Take `CC[C@@H]1CC[C@@H]2[C@H](CC[C@]3(C)[C@@H](O)CC[C@@H]23)[C@H]1C(=O)O`: the GI50 in experiment [1], in experiment [2], in experiment [3], in [4], in experiment [5] and in experiment [6] was > 100 µM (inactive) throughout. For the same compound, the GI50 in experiment [7], in experiment [8], in experiment [9], in experiment [10], in [11] and in experiment [12] was > 100 µM (inactive) throughout. Also, the GI50 in experiment [13], in experiment [14], in experiment [15], in experiment [16], in experiment [17] and in [18] was > 100 µM (inactive) throughout. Besides, the GI50 in experiment [19] and in [20] was > 100 µM (inactive) in each case.
With `Cc1cccc2c(N)c3cccc(C(=O)NCCNCCN)c3nc12`, the GI50 was 10.4 µM (inactive) in experiment [1]; 22.3 µM (inactive) in experiment [2]; 3.68 µM (inactive) in experiment [3]; 0.0826 µM (active) in experiment [4]; 27.9 µM (inactive) in [5]; 2.67 µM (inactive) in experiment [6]. Also, the GI50 in experiment [7] was 9.55 µM (inactive); in [8], 28.7 µM (inactive); in [9], 2.71 µM (inactive); in experiment [10], 10.8 µM (inactive); in [11], 8.28 µM (inactive); in [12], 23.7 µM (inactive). Also, the GI50 in experiment [13] was 16 µM (inactive); in experiment [14], 5.01 µM (inactive); in [15] it was 5.11 µM (inactive); in [16] it was 0.179 µM (active); in experiment [17], 15.4 µM (inactive); in experiment [18], 5.28 µM (inactive). The values for the GI50 in experiment [19] and in [20] were 13 µM (inactive) and 2.62 µM (inactive), respectively.
Turning to `C[C@]12CC[C@@H]3c4cc(OCC(F)(F)F)c(O)cc4CC[C@H]3[C@@H]1CC[C@@H]2O`, the GI50 in experiment [1] is 8.17 µM (inactive); in [2], 12 µM (inactive); in experiment [3], 1.54 µM (inactive); in experiment [4], 0.558 µM (active); in experiment [5], 2.24 µM (inactive); in experiment [6], 17.9 µM (inactive). Moreover, the GI50 in experiment [7] was 1.17 µM (inactive); in experiment [8], 1.52 µM (inactive); in [9], 15 µM (inactive); in [10], 2.28 µM (inactive); in experiment [11], 0.438 µM (active); in experiment [12], 7.66 µM (inactive). Besides, the GI50 in experiment [13] was 0.287 µM (active); in [14], 6.89 µM (inactive); in [15], 3.38 µM (inactive); in [16], 1.86 µM (inactive); in experiment [17] it was 0.673 µM (active); in experiment [18] it was 2.94 µM (inactive). Further, the GI50 in experiment [19] is 4.55 µM (inactive); in experiment [20], 6.3 µM (inactive).
As for `COc1ccc2c(c1)N(C(C)=O)CN1C(=O)CCC21` (stereo not given), the GI50 in experiment [1], in experiment [2], in [3], in experiment [4], in experiment [5] and in experiment [6] was > 100 µM (inactive) each time. Moreover, the GI50 is 49.3 µM (inactive) in experiment [7]; > 100 µM (inactive) in [8]; > 100 µM (inactive) in [9]; > 100 µM (inactive) in experiment [10]; 79.6 µM (inactive) in experiment [11]; > 100 µM (inactive) in experiment [12]. Also, the GI50 in [13], in [14], in experiment [15], in experiment [16], in [17] and in experiment [18] was > 100 µM (inactive) each time. The GI50 in [19] and in experiment [20] was > 100 µM (inactive) each time.
Regarding `CCCCCCCC(=O)OC[n+]1ccc(-c2c(COC(=O)NC(C)C)c(COC(=O)NC(C)C)c3n2CCC3)cc1`, the GI50 in experiment [1] is > 79.6 µM (inactive); in experiment [2], > 67.5 µM (inactive); in [3], 53.5 µM (inactive); in experiment [4], 26.4 µM (inactive); in experiment [5], 53.8 µM (inactive); in experiment [6], 38.6 µM (inactive). For the same compound, the GI50 was 22.1 µM (inactive) in experiment [7]; 49.8 µM (inactive) in experiment [8]; 48.9 µM (inactive) in experiment [9]; > 65.2 µM (inactive) in experiment [10]; 34.4 µM (inactive) in experiment [11]; 29.9 µM (inactive) in experiment [12]. In addition, the GI50 is > 94.8 µM (inactive) in experiment [13]; 31 µM (inactive) in experiment [14]; 34.8 µM (inactive) in [15]; 33.4 µM (inactive) in experiment [16]; 44.9 µM (inactive) in experiment [17]; 20.1 µM (inactive) in experiment [18]. The GI50 was 22.1 µM (inactive) in experiment [19] and 23.4 µM (inactive) in experiment [20].
